{"source": "paper PMC9427252", "about": "“Study on the Absorption of Arsenic Species in Realgar Based on the Form and Valence” (Evidence-based Complementary and Alternative Medicine : eCAM, 2022)", "key": {"[1]": {"system": "duodenum, jejunum, and ileum"}, "Caco-2 cells": {"system": "Caco-2 cells", "conditions": "A to B, realgar artificial intestinal dissolved solution"}, "[2]": {"conditions": "rat plasma, oral 0.1 g/kg realgar"}}, "note": "Where two headings read alike, the source gives them in different places."}
{"smiles": "O[As](O)O", "note": "[AsIII, Arsenite]", "values": [{"measurement": "MRT(0-∞)", "setting": "rat, in vivo, po, 0.1 g/kg", "value": 9.649, "unit": "h"}]}
{"smiles": "O=[As](O)(O)O", "note": "[AsV, Arsenate]", "values": [{"measurement": "Cout/Cin", "setting": "[1]; duodenum and jejunum", "value": "> 1"}, {"measurement": "Cout/Cin", "setting": "[1]; ileum", "value": "< 1"}, {"measurement": "Cout/Cin", "setting": "[1]; realgar intestinal perfusate, duodenum, time 15", "value": "3.14 ± 0.81"}, {"measurement": "Cout/Cin", "setting": "[1]; realgar intestinal perfusate, duodenum, time 30", "value": "3.16 ± 0.91"}, {"measurement": "Cout/Cin", "setting": "[1]; realgar intestinal perfusate, duodenum, time 45", "value": "3.01 ± 0.96"}, {"measurement": "Cout/Cin", "setting": "[1]; realgar intestinal perfusate, duodenum, time 60", "value": "3.20 ± 1.04"}, {"measurement": "Cout/Cin", "setting": "[1]; realgar intestinal perfusate, duodenum, time 75", "value": "3.17 ± 0.86"}, {"measurement": "Cout/Cin", "setting": "[1]; realgar intestinal perfusate, ileum, time 15", "value": "0.78 ± 0.11"}, {"measurement": "Cout/Cin", "setting": "[1]; realgar intestinal perfusate, ileum, time 30", "value": "0.77 ± 0.10"}, {"measurement": "Cout/Cin", "setting": "[1]; realgar intestinal perfusate, ileum, time 45", "value": "0.76 ± 0.12"}, {"measurement": "Cout/Cin", "setting": "[1]; realgar intestinal perfusate, ileum, time 60", "value": "0.78 ± 0.11"}, {"measurement": "Cout/Cin", "setting": "[1]; realgar intestinal perfusate, ileum, time 75", "value": "0.80 ± 0.13"}, {"measurement": "Cout/Cin", "setting": "[1]; realgar intestinal perfusate, jejunum, time 15", "value": "1.54 ± 0.46"}, {"measurement": "Cout/Cin", "setting": "[1]; realgar intestinal perfusate, jejunum, time 30", "value": "1.46 ± 0.39"}, {"measurement": "Cout/Cin", "setting": "[1]; realgar intestinal perfusate, jejunum, time 45", "value": "1.50 ± 0.28"}, {"measurement": "Cout/Cin", "setting": "[1]; realgar intestinal perfusate, jejunum, time 60", "value": "1.34 ± 0.25"}, {"measurement": "Cout/Cin", "setting": "[1]; realgar intestinal perfusate, jejunum, time 75", "value": "1.28 ± 0.24"}, {"measurement": "Cumulative transport amount", "setting": "Caco-2 cells; 30 min", "value": "0.23 ± 0.07", "unit": "ng"}, {"measurement": "Cumulative transport amount", "setting": "Caco-2 cells; 60 min", "value": "0.41 ± 0.06", "unit": "ng"}, {"measurement": "Cumulative transport amount", "setting": "Caco-2 cells; 90 min", "value": "1.01 ± 0.16", "unit": "ng"}, {"measurement": "Cumulative transport amount", "setting": "Caco-2 cells; 120 min", "value": "0.84 ± 0.02", "unit": "ng"}, {"measurement": "Cumulative transport amount", "setting": "Caco-2 cells; 180 min", "value": "1.20 ± 0.15", "unit": "ng"}, {"measurement": "AUC(0-24)", "setting": "[2]", "value": 47.310, "unit": "ng·h/mL"}, {"measurement": "AUC(0-∞)", "setting": "[2]", "value": 47.687, "unit": "ng·h/mL"}, {"measurement": "Cmax", "setting": "[2]", "value": 0.021626, "unit": "ng/mL"}, {"measurement": "MRT(0-∞)", "setting": "[2]", "value": 2.790, "unit": "h"}, {"measurement": "Tmax", "setting": "[2]", "value": 0.393, "unit": "h"}, {"measurement": "t1/2", "setting": "[2]", "value": 1.775, "unit": "h"}]}
